Experimental data published in ChEMBL document CHEMBL1201862, “PubChem BioAssay data set” (2004).
Several values for one entry are separate records, joined by “and”; a condition that tells them apart may be missing. Identical values can stand only once.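 Method: 48-hour compound exposure of cells in 96-well plates, five concentrations, linear interpolation of endpoints. At the GI50, growth is halved.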 Activity calls are given as the source filed them. Rule as the data show it: active = GI50 up to about 1.1 µM and inactive = higher.

Key:
Test in all cases: DTP human tumour cell line panel, 48 h
A549 = tested on: A549
EKVX = tested on: EKVX
HCT-15 = tested on: HCT-15
HOP-18 = tested on: HOP-18
HOP-62 = tested on: HOP-62
HOP-92 = tested on: HOP-92
LOX IMVI = tested on: LOX IMVI
MOLT-4 = tested on: MOLT-4
Malme-3M = tested on: Malme-3M
NCI-H226 = tested on: NCI-H226
NCI-H23 = tested on: NCI-H23
OVCAR-3 = tested on: OVCAR-3
OVCAR-8 = tested on: OVCAR-8
RPMI-8226 = tested on: RPMI-8226
SK-MEL-2 = tested on: SK-MEL-2
SK-OV-3 = tested on: SK-OV-3
U-251 = tested on: U-251
UACC-62 = tested on: UACC-62
UO-31 = tested on: UO-31
A498 = tested on: A498

COc1cccc(NC(=O)CC(=O)NNCC(=O)Nc2nnc(-c3ccc(N(CCC#N)S(=O)(=O)c4ccccc4)cc3)s2)c1
GI50 (A549): 67.5 µM (inactive) | GI50 (EKVX): 41 µM (inactive) | GI50 (HCT-15): > 100 µM | GI50 (HOP-18): > 100 µM (inactive) | GI50 (HOP-62): 88.7 µM (inactive) | GI50 (HOP-92): 49.2 µM (inactive) | GI50 (LOX IMVI): 75.7 µM (inactive) | GI50 (MOLT-4): 35.7 µM (inactive) | GI50 (Malme-3M): 40.7 µM (inactive) | GI50 (NCI-H226): > 100 µM (inactive) | GI50 (NCI-H23): 48.3 µM (inactive) | GI50 (OVCAR-3): 78.3 µM (inactive) | GI50 (OVCAR-8): > 100 µM (inactive) | GI50 (RPMI-8226): 66.4 µM (inactive) | GI50 (SK-MEL-2): > 100 µM (inactive) | GI50 (SK-OV-3): 30.5 µM (inactive) | GI50 (U-251): 76.9 µM (inactive) | GI50 (UACC-62): 30.7 µM (inactive) | GI50 (UO-31): 47.4 µM (inactive)

COc1ccc(/C(Cl)=C(\C=O)c2ccc(Cl)c(Cl)c2)cc1OC
GI50 (A498): 15.2 µM (inactive) | GI50 (EKVX): 9.53 µM (inactive) | GI50 (HCT-15): 4.34 µM | GI50 (HOP-18): 6.76 µM (inactive) | GI50 (HOP-62): 16.3 µM (inactive) | GI50 (HOP-92): 2.69 µM (inactive) | GI50 (LOX IMVI): 3.37 µM (inactive) | GI50 (MOLT-4): 2.24 µM (inactive) | GI50 (Malme-3M): 18.3 µM (inactive) | GI50 (NCI-H226): 4.84 µM (inactive) | GI50 (NCI-H23): 2.9 µM (inactive) | GI50 (OVCAR-3): 13.1 µM (inactive) | GI50 (OVCAR-8): 4.02 µM (inactive) | GI50 (RPMI-8226): 2.08 µM (inactive) | GI50 (SK-MEL-2): 1.87 µM (inactive) | GI50 (SK-OV-3): 38.5 µM (inactive) | GI50 (U-251): 4.34 µM (inactive) | GI50 (UACC-62): 4.63 µM (inactive) | GI50 (UO-31): 7.33 µM (inactive)

C1CCC(OC2CSC2)OC1 (stereo not given)
GI50 (A498): > 100 µM (inactive) | GI50 (A549): > 100 µM (inactive) | GI50 (HCT-15): > 100 µM | GI50 (HOP-92): > 100 µM (inactive) | GI50 (LOX IMVI): > 100 µM (inactive) | GI50 (MOLT-4): > 100 µM (inactive) | GI50 (NCI-H226): > 100 µM (inactive) | GI50 (NCI-H23): > 100 µM (inactive) | GI50 (OVCAR-3): > 100 µM (inactive) | GI50 (OVCAR-8): > 100 µM (inactive) | GI50 (SK-OV-3): > 100 µM (inactive) | GI50 (U-251): > 100 µM (inactive) | GI50 (UO-31): > 100 µM (inactive)

CCOC(=O)C(C)N1C(=O)c2ccccc2S1(=O)=O (stereo not given)
GI50 (A498): > 100 µM (inactive) | GI50 (A549): > 100 µM (inactive) | GI50 (EKVX): > 100 µM (inactive) | GI50 (HCT-15): > 100 µM | GI50 (HOP-18): > 100 µM (inactive) | GI50 (HOP-62): > 100 µM (inactive) | GI50 (HOP-92): > 100 µM (inactive) | GI50 (LOX IMVI): > 100 µM (inactive) | GI50 (MOLT-4): > 100 µM (inactive) | GI50 (Malme-3M): > 100 µM (inactive) | GI50 (NCI-H226): > 100 µM (inactive) | GI50 (NCI-H23): > 100 µM (inactive) | GI50 (OVCAR-3): > 100 µM (inactive) | GI50 (OVCAR-8): > 100 µM (inactive) | GI50 (RPMI-8226): > 100 µM (inactive) | GI50 (SK-MEL-2): > 100 µM (inactive) | GI50 (SK-OV-3): > 100 µM (inactive) | GI50 (U-251): > 100 µM (inactive) | GI50 (UACC-62): > 100 µM (inactive) | GI50 (UO-31): > 100 µM (inactive)

Cc1c2cnccc2c(C)c2c1c1ccccc1n2CCCCCCCl
GI50 (A498): > 50 µM (inactive) | GI50 (A549): > 48.2 µM (inactive) | GI50 (EKVX): > 50 µM (inactive) | GI50 (HCT-15): > 50 µM | GI50 (HOP-18): > 7.93 µM (inactive) | GI50 (HOP-62): > 50 µM (inactive) | GI50 (HOP-92): > 50 µM (inactive) | GI50 (LOX IMVI): 30.4 µM (inactive) | GI50 (MOLT-4): 19.9 µM (inactive) | GI50 (Malme-3M): > 50 µM (inactive) | GI50 (NCI-H226): 22.5 µM (inactive) | GI50 (NCI-H23): 38.6 µM (inactive) | GI50 (OVCAR-3): 49.7 µM (inactive) | GI50 (OVCAR-8): 26 µM (inactive) | GI50 (RPMI-8226): 13.2 µM (inactive) | GI50 (SK-MEL-2): > 50 µM (inactive) | GI50 (SK-OV-3): > 50 µM (inactive) | GI50 (U-251): 35.1 µM (inactive) | GI50 (UACC-62): > 50 µM (inactive) | GI50 (UO-31): > 47.5 µM (inactive)

CN(C)C(=O)OC1C(=O)N(C)c2ccc(Cl)cc2C2(c3ccccc3)N1C2(Cl)Cl (stereo not given)
GI50 (EKVX): 44.4 µM (inactive) | GI50 (HCT-15): 60.4 µM | GI50 (HOP-62): 54.8 µM (inactive) | GI50 (HOP-92): 18.7 µM (inactive) | GI50 (LOX IMVI): > 100 µM (inactive) | GI50 (MOLT-4): 47.9 µM (inactive) | GI50 (Malme-3M): > 100 µM (inactive) | GI50 (NCI-H226): 38.7 µM (inactive) | GI50 (NCI-H23): 47.8 µM (inactive) | GI50 (OVCAR-3): 53.8 µM (inactive) | GI50 (OVCAR-8): 95.5 µM (inactive) | GI50 (RPMI-8226): 46.5 µM (inactive) | GI50 (SK-MEL-2): > 100 µM (inactive) | GI50 (SK-OV-3): 82.8 µM (inactive) | GI50 (U-251): 45.3 µM (inactive) | GI50 (UACC-62): 64.7 µM (inactive) | GI50 (UO-31): 49.2 µM (inactive)

COc1cc2c3cc1Oc1c(OC)c(OC)cc4c1C(Cc1ccc(cc1)Oc1cc(ccc1O)CC3N(C)CC2)N(C)CC4 (stereo not given)
GI50 (A498): 16.1 µM (inactive) | GI50 (A549): 14.9 µM (inactive) and 8.99 µM (inactive) | GI50 (EKVX): 24.9 µM (inactive) and 13.1 µM (inactive) | GI50 (HOP-18): > 100 µM (inactive) | GI50 (HOP-62): 18.1 µM (inactive) | GI50 (HOP-92): 16.2 µM (inactive) | GI50 (MOLT-4): 4.41 µM (inactive) and 5.09 µM (inactive) | GI50 (Malme-3M): 7.01 µM (inactive) and 14 µM (inactive) | GI50 (NCI-H226): 16.8 µM (inactive) and 18.9 µM (inactive) | GI50 (NCI-H23): 12.8 µM (inactive) and 17.1 µM (inactive) | GI50 (OVCAR-3): 13.6 µM (inactive) and 15.8 µM (inactive) | GI50 (RPMI-8226): 6.64 µM (inactive) | GI50 (SK-MEL-2): 12.9 µM (inactive) and 8.69 µM (inactive) | GI50 (SK-OV-3): 13.4 µM (inactive) and 25.6 µM (inactive) | GI50 (U-251): 11.2 µM (inactive) and 9.08 µM (inactive) | GI50 (UACC-62): 8.89 µM (inactive) and 15.1 µM (inactive) | GI50 (UO-31): 4.9 µM (inactive) and 8.28 µM (inactive)

CCCCCCCC/C=C\CCCCCCCCCCCC(=O)O [ERUCIC ACID]
GI50 (A498): 0.891 µM (active) | GI50 (A549): 38.5 µM (inactive) | GI50 (EKVX): 34 µM (inactive) | GI50 (HCT-15): 43.7 µM | GI50 (HOP-18): 46.2 µM (inactive) | GI50 (HOP-62): 30.1 µM (inactive) | GI50 (HOP-92): 38.9 µM (inactive) | GI50 (LOX IMVI): 29.4 µM (inactive) | GI50 (MOLT-4): 37.3 µM (inactive) | GI50 (Malme-3M): 47.9 µM (inactive) | GI50 (NCI-H226): 52.4 µM (inactive) | GI50 (NCI-H23): 25.5 µM (inactive) | GI50 (OVCAR-3): 17.8 µM (inactive) | GI50 (OVCAR-8): 37.2 µM (inactive) | GI50 (RPMI-8226): 45.6 µM (inactive) | GI50 (SK-MEL-2): 18 µM (inactive) | GI50 (SK-OV-3): > 85.9 µM (inactive) | GI50 (U-251): 37.9 µM (inactive) | GI50 (UACC-62): 27.5 µM (inactive) | GI50 (UO-31): 74 µM (inactive)
